{"source": "patent US11207331B2", "about": "“Agents, compositions and methods for enhancing neurological function” (University of Southern California, priority 2007, dated 2021)", "key": {"hippocampal neural cells": {"tested_on": "hippocampal neural cells", "assay": "3H-thymidine uptake in cultured hippocampal neural cells", "assay_type": "cell-based, rat", "details": "from about 0.1 nm to about 250 nm THP", "protocol": "Biochemical analyses of 3H-thymidine uptake, as a measure of DNA synthesis, were used as the experimental vehicle to confirm the morphological observations described in examples 1 and 2. […] Thus, the range for the neurogenic effect of THP on neural cells is quite is sensitive and quite broad.\nFor these experiments, cultured hippocampal neural cells, derived from embryonic day 18 rat fetuses, were allowed to adhere to polylysine coated plastic cover-slips for 40 min in serum containing medium. Following adhesion, neurons were exposed to […] 3H-thymidine in the presence or absence of 100-500 nM THP and allowed to incubate at 37° C. for 24 hours in the absence or presence of the indicated steroids. Data are expressed as mean+SEM, *p<. 05,**p<0.01, ***p<0.001.\nThe time course of THP-induced 3H-thymidine incorporation in hippocampal neuronal cells is shown in FIG. 9 where cultured hippocampal nerve cells, derived from embryonic day 18 rat fetuses, were allowed to adhere to polylysine coated plastic cover-slips for 40 min in serum containing medium. Following adhesion, serum containing medium in the presence or absence of 10-250 nM THP plus […] 3H-thymidine and allowed to incubate at 37 for 1, 8 or 24 hours. Data are expressed as mean±SEM, *p<0.05,**p<0.01,***p<0.001."}, "[1]": {"tested_on": "neural stem cells derived from human fetal cortex", "assay": "BrdU chemiluminescence ELISA in human neural stem cells", "assay_type": "cell-based", "details": "250 and 500 nM, 24 hours", "protocol": "Another experiment was performed to assess the neurogenic effects of THP administration on human neural stem cells. In this experiment, neural stem cells derived from human fetal cortex were treated with varying concentrations of THP [1-1000 nM] or with bFGF [20 ng/ml]+heparin [[…]] as a THP positive control. The proliferation marker, BrdU [10 uM] was added simultaneously with test molecules and the cells were incubated at 37° C. for 24 hours."}, "SVZ from 3×TgAD mice": {"tested_on": "SVZ from 3×TgAD mice", "assay": "Unbiased stereology of BrdU-positive cells in subventricular zone", "assay_type": "in vivo, mouse", "details": "10 mg/kg"}, "[2]": {"assay": "THP concentration in plasma and cortex by GC/MS", "assay_type": "in vivo, mouse", "protocol": "Cortices from brain hemisection of mice treated with THP or vehicle were collected at time of sacrifice for measurement of THP by GC/MS. Plasma was also collected at time of sacrifice. Three-month-old male non-Tg and 3×TgAD mice were subcutaneously injected with THP (1, 10, and 20 mg/kg BW) or vehicle (0.1% ethanol in PBS, n=4 in each group). The mice were sacrificed 24 hours later. THP concentration in plasma and brain were measured by GC/MS. […] In the 3×TgAD mouse cortex, a 10 mg/kg dose of THP results in a cortical level of 20 ng/g protein 24 hrs post injection."}, "PCNA and CDK1/cdc2": {"tested_on": "PCNA and CDK1/cdc2", "assay": "PCNA and CDK1/cdc2 mRNA and protein in hippocampus (RT-PCR, Western blot)", "assay_type": "in vivo, mouse", "protocol": "Protein was extracted from mouse hippocampus and separated by SDS gel as described in the literature. After transfer, PVDF membrane was plotted with monoclonal antibody for proliferating cell nuclear antigen (PCNA, 1:500, Zymed Laboratories Inc, San Francisco, Calif.) and then incubated with a horseradish peroxidase conjugated secondary antibody which is complementary to the primary antibody. Results were visualized by the ECL Plus Western Blotting Detection System (GE Healthcare, Amersham, Buckinghamshire, UK) followed by TMB development. Optical density was and analyzed by BioRad Quantity One software. The percent protein expression vs. control was normalized by loading control β-actin.\nBrain samples derived from the same brains that underwent unbiased stereological analysis and GC/MC for THP detection were also analyzed by real-time RT-PCR and Western blot for expression of PCNA and CDK1 mRNA and protein.\nTo confirm the stereological analyses results, Western blot analyses of cell proliferation marker PCNA were carried out using samples derived from the same brains which underwent unbiased stereological analysis. PCNA, or Proliferating Cell Nuclear Antigen, is a protein that acts as a processivity factor for DNA polymerase delta subunit in eukaryotic cells and was induced in vitro by THP in cultured rat hippocampal progenitor cells.\nWestern blot analysis was performed to determine proliferating cell nuclear antigen (PCNA) expression levels in the hippocampus from the same animals that underwent behavior experiments."}, "[3]": {"tested_on": "hippocampus of 3×TgAD mice", "assay": "Long-term treatment with BrdU, IdU and CldU labelling", "assay_type": "in vivo, mouse", "details": "10 mg/kg once a week for 6 months, begun at 3 or 6 months of age", "protocol": "In yet another study, THP (10 mg/kg once a week for 6 months) was administered to mice beginning at 3 months or 6 months of age. The cell proliferation marker, 5-bromodeoxyuridine (BrdU) was injected (100 mg/kg) one hour after initial THP treatment and once per day for the next four days to detect cell proliferation and cell survival over the six month treatment period. After 3 months treatment, the mice were injected 5 times with another nucleotide analog iododeoxyuridine (one per day). After 6 months treatment, the mice were injected with chlorodeoxyuridine (CldU) 5 times (once per day). Using specific antibodies, BrdU, IdU, and CldU incorporated cells will identify the 6 month survival, 3 month survival, and newly formed cells respectively. The mice were then sampled for biochemical, IHC, and flow cytometry assay. The results from mice with THP treatment initiated at 3 months old are shown in FIGS. 20B and 20C and initiated at 6 months old are shown in FIGS. 20D and 20E. The aim was to determine whether or not desensitization to THP was occurring."}}}
{"molecule": "CC(=O)[C@H]1CC[C@H]2[C@@H]3CC[C@H]4C[C@H](O)CC[C@]4(C)[C@H]3CC[C@]12C", "note": "[THP, 3α-hydroxy-5α-pregnan-20-one]", "values": [{"measurement": "increase in 3H-thymidine uptake relative to control", "setting": "hippocampal neural cells", "result": 80, "unit": "%"}, {"measurement": "BrdU chemiluminescence compared with positive control bFGF+heparin", "setting": "[1]", "result": "consistently greater than the positive control bFGF+heparin"}, {"measurement": "BrdU chemiluminescence relative to vehicle control", "setting": "[1]", "result": "significantly increased"}, {"measurement": "increase in BrdU-positive cells relative to untreated group", "setting": "SVZ from 3×TgAD mice", "result": 58, "unit": "%"}, {"measurement": "dose dependence of THP in plasma and cortex", "setting": "[2]; 1, 10 and 20 mg/kg BW s.c., 24 hours", "result": "linear dose dependent manner"}, {"measurement": "cortical level of THP", "setting": "[2]; 3×TgAD mouse cortex, 10 mg/kg s.c., 24 hrs post injection", "result": 20, "unit": "ng/g protein"}, {"measurement": "THP level in 3×TgAD relative to nontransgenic treated mice", "setting": "[2]; plasma and cortex, 24 hours", "result": "consistently lower level of THP in both plasma and cortex"}, {"measurement": "PCNA and CDK1 protein expression in hippocampi", "setting": "PCNA and CDK1/cdc2; 10 mg/kg, Western blot, 3 months", "result": "greater PCNA and CDK1 protein expression in the hippocampi of 3×TgAD relative to the non-Tg mice"}, {"measurement": "PCNA expression vs vehicle 21 day after injection", "setting": "PCNA and CDK1/cdc2; 3×TgAD mice, 6, 9 or 12-month-old", "result": "no significant difference"}, {"measurement": "PCNA mRNA in hippocampus", "setting": "PCNA and CDK1/cdc2; 3×TgAD mice, real-time RT-PCR, 1-20 mg/kg", "result": "dose-dependent increase in PCNA mRNA"}, {"measurement": "PCNA immunoblot vs vehicle control", "setting": "PCNA and CDK1/cdc2; 3×TgAD mice, three and six month, 24 hours after 10 mg/kg", "result": "increased"}, {"measurement": "PCNA expression vs vehicle", "setting": "PCNA and CDK1/cdc2; non-Tg and 3×TgAD mice, 6- and 9-months, 24 hr", "result": "did not significantly affect PCNA expression"}, {"measurement": "responsiveness of the brain (desensitization)", "setting": "[3]", "result": "still responsive to THP at 3 and 6 months"}]}
